In US7122359B2, “Active-site engineering of nucleotidylyltransferases and general enzymatic methods for the synthesis of natural and “unnatural” UDP- and TDP-nucleotide sugars” (priority 2000, dated 2006):

Key:
[1] = molecular target: T1, Salmonella enterica LT2 α-D-glucopyranosyl phosphate thymidylyltransferase (Ep) (Salmonella typhimurium, UniProt P26393); assay: Ep-catalyzed conversion of α-D-hexopyranosyl phosphates and NTP to NDP-sugars, HPLC (FIG. 2); format: biochemical; conditions: 5 mM NTP, 10 mM sugar phosphate, 30 min, 37° C.
T1 construct: made in house; host or cells: E. coli (E. coli-prfbA-C)
From the text: FIG. 2. E^p-Catalyzed Conversion of Substrates wherein superscript indicators (a)–(h) are as follows: (a) Percent conversion=[Ap/(AP+AT)]×100, where AP is the NDP-sugar product peak integration and AT represents the NTP peak integration. HRMS for all observed products reported in the supporting information. (b) Standard retention times: TDP, […]; TTP, 7.2 mm; UDP, 4.0 mm; UTP, 6.1 mm. (c) Commercially available. (d) Coelutes with commercially available standard. […] (f) Adjusted for the 2:1 α/β-28. (g) In contrast to previously published studies (See Lindquist, L; Kaiser, R.; Reeves, P. R.; Lindberg, A. A., Eur J. Biochem, 1993, 211, 763–770). (h) No products observed.
To evaluate the synthetic utility of purified thymidylyltransferase, Ep, α-D-hexopyranosyl phosphate, Mg^+2 and NTP were incubated at about 37° C. for about 30 min and the extent of product formation determined by HPLC. The results of these assays are illustrated in FIG. 2. Confirmation of product formation was based upon HPLC co-elution with commercially available standards and/or HPLC isolation and high resolution mass spectroscopy of the product. […] A reaction containing 5 mM NTP, 10 mM sugar phosphate and 5.5 mM MgCl2 in a total volume of 50 μL 50 mM potassium phosphate buffer, pH 7.5 at 37° C. was initiated by the addition of 3.52 U Ep (1 U=the amount of protein needed to produce 1 μmol TDP-D-glucose min^−1). The reaction was incubated with slow agitation for 30 min at 37° C., quenched with MeOH (50 μL), centrifuged (5 min, 14,000×g) and the supernatant was stored at −20° C. until analysis by HPLC. Samples (20 μL) were resolved on a Sphereclone 5 u SAX column (250×4.6 mm) fitted with a guard column (30×4.6 mm) using a linear gradient (20–60 mM potassium phosphate buffer, pH 5.0, 1.5 mL min^−1, A275 nm).

[2] = molecular target: T1, Salmonella enterica LT2 α-D-glucopyranosyl phosphate thymidylyltransferase (Ep); format: biochemical; conditions: secondary plot of Lineweaver-Burke plots, assays in triplicate
From the text: FIG. 10. […] The conditions for the Ep assay conditions and HPLC resolution of reactants and products were similar to those described in Jiang, J., Biggins, J. B. & Thorson, J. S. A General Enzymatic Method for the Synthesis of Natural and “Unnatural” UDP- and TDP-Nucleotide Sugars. J. Am. Chem. Soc. 122, 6803–6804 (2000).
(§1) Assays for product formation and steady state kinetics were accomplished using conditions similar to those described. in Jiang, J., Biggins, J. B. & Thorson, J. S. A General Enzymatic Method for the Synthesis of Natural and “Unnatural” UDP- and TDP-Nucleotide Sugars. J. Am. Chem. Soc. 122, 6803-6804 (2000). For the mutant pool assays, an aliquot which contained an eqimolar ratio of each mutant (60 μg) was utilized.

[3] = molecular target: T1, Salmonella enterica LT2 α-D-glucopyranosyl phosphate thymidylyltransferase (Ep); assay: Ep-catalyzed conversion of aminodeoxy/acetamidodeoxy sugar phosphates with inorganic pyrophosphatase, HPLC (FIG. 4); format: biochemical; conditions: for product formation with dTTP: 2.5 mM NTP, 5.0 mM sugar phosphate, 10 U inorganic pyrophosphatase, 30 min, 37° C.
Description: To evaluate the synthetic utility of thymidylyl-transferase, purified Ep, α-D-glucopyranosyl phosphate, Mg^+2, NTP and inorganic pyrophosphatase were incubated at 37° C. for 30 min and the extent of product formation determined by HPLC. The inorganic pyrophosphatase was included to drive the reaction forward. A reaction containing 2.5 mM NTP, 5.0 mM sugar phosphate, 5.5 mM MgCl2 and 10 U inorganic pyrophosphatase in a total volume of 50 μL 50 mM potassium phosphate buffer, pH 7.5 at 37° C. was initiated by the addition of 3.52 U Ep (1 U=the amount of protein needed to produce […] TDP-D-glucose min^−1). The reaction was incubated with slow agitation for 30 min at 37° C., quenched with MeOH (50 μL), centrifuged (5 min, 14,000×g) and the supernatant was stored at −20° C. until analysis by HPLC. Samples (30 μL) were resolved on a Sphereclone 5u SAX column (150×4.6 mm) fitted with a SecurityGuard ™ cartridge (Phenomenex; Torrance, Calif.) using a linear gradient (50–200 mM potassium phosphate buffer, pH 5.0, 1.5 mL min^−1, A275 nm).
The results of these assays are illustrated in FIG. 4. For each assay, confirmation of product formation was based upon high resolution mass spectroscopy of HPLC-isolated products and, also in some cases, HPLC co-elution with commercially available standards.
A reaction containing 2.5 mM NTP, 5.0 mM sugar phosphate, 5.5 mM MgCl2 and 10 U inorganic pyrophosphatase in a total volume of 50 μL 50 mM potassium phosphate buffer, pH 7.5 at 37° C. was initiated by the addition of 3.52 U Ep (1 U=the amount of protein needed to produce 1 μmol TDP-α-D-glucose min^−1) The reaction was incubated with slow agitation for 30 min at 37° C., quenched with MeOH (50 μL), centrifuged (5 min, 14,000×g) and the supernatant was stored at −20° C. until analysis by HPLC. Samples (30 μL) were resolved on a Sphereclone 5u SAX column (250×4.6 mm) fitted with a guard column (30×4.6 mm) using a linear gradient (50–200 mM potassium phosphate buffer, pH 5.0, 1.5 mL min^−1, A275 nm).

wild-type Ep = molecular target: T2, wild-type Ep (Salmonella typhimurium, UniProt P26393); assay: Conversion of sugar phosphates by wild-type enzyme (FIG. 11); format: biochemical, Salmonella enterica LT2
T2 construct: made in house; host or cells: E. coli (E. coli-prfbA-C)
Description: (§2) FIG. 11. Percent conversion of sugar phosphates according to the present invention by wild-type and mutant enzymes. The alterations from native substrate (Glc-1-P,1) are highlighted in red. For the mutant pool, mutants Asp41Asn, Glu62Asp, Thr201A and Trp224His were pooled, concentrated and an aliquote constituting 60 μg of each mutant (corresponding to 3.5U Ep) was utilized for the assay.
Percent conversion was determined as described in Jiang, J., Biggins, J. B. & Thorson, J. S. A General Enzymatic Method for the Synthesis of Natural and “Unnatural” UDP- and TDP-Nucleotide Sugars. J. Am. Chem. Soc. 122, 6803–6804 (2000).
as §1

[4] = tested on: mutant pool (Asp41Asn, Glu62Asp, Thr201A and Trp224His Ep mutants); assay: Conversion of sugar phosphates by pooled Ep mutants (FIG. 11); format: biochemical, Salmonella enterica LT2; conditions: 60 μg of each mutant
Description: as §2
As a rapid means to assay the entire pool of the four newly constructed mutants, the mutants were combined and the mixture directly tested for ability to convert compounds (2), (108), (89), (102), (38), and (127). […] Those substrates turned over include […] and (127), the two sugar phosphates not accepted or poorly accepted by wild-type Ep.
as §1

Ep Trp224His mutant = molecular target: T3, Ep Trp224His mutant (Salmonella typhimurium, UniProt P26393, W224H); assay: Individual mutant analysis: Trp224His; format: biochemical, Salmonella enterica LT2; conditions: deconvolution of the mutant pool
T3 construct: made in house
From the text: (§3) Thr102Ala, on the other hand, was responsible for the 2-fold increase in the conversion of (108). […] Yet, cumulatively, this small set of directed mutants was able to successfully turn over three of four targeted “unnatural” substrates. […] This Ep variant will serve as an excellent foundation for second generation double mutants.
as §1

Ep Thr102Ala mutant = molecular target: T4, Ep Thr102Ala mutant (Salmonella typhimurium, UniProt P26393, T201A); assay: Individual mutant analysis: Thr102Ala; format: biochemical, Salmonella enterica LT2; conditions: over wild-type Ep
T4 construct: made in house
From the text: as §3, §1

[5] = Specific activity of purified Ep (1 U = protein needed to produce 1 μmol TDP-D-glucose min^−1); format: biochemical, Salmonella enterica LT2; conditions: purified to near homogeneity
From the text: Ep is encoded by rmlA, which was previously known as rfbA (Reeves et al. Trends Microbiol. 1996, 4, 495–502). The rmlA-encoded Ep was overexpressed in E. coli to provide the desired Ep as >5% of the total soluble protein. The corresponding Ep was purified to near homogeniety with a specific activity of 110 U mg^−1, a 2-fold improvement over the previously reported values. (See Lindquist, L.; Kaiser, R.; Reeves, P. R.; Lindberg, A. A. Eur. J. Biochem., 1993, 211, 763–770.) An (NH4)2SO4 precipitate of E. coli-prfbA-C crude extracts was dialyzed against buffer B (20 mM Tris.HCl, 1 mM EDTA, pH 7.5) The dialysate was resolved by anion exchange (DE52, 3×15 cm, 50 mL buffer B wash followed by a linear gradient of 0–500 mM NaCl, 1.0 mL min^−1) and the Ep fractions combined, concentrated and further resolved by FPLC gel filtration (S-200, 2×70 cm, 50 mM Tris.HCl, 200 mM NaCl, pH 7.5). The purified Ep was stored in aliquots (−80° C.) until used.
To evaluate the synthetic utility of purified thymidylyltransferase, Ep, α-D-hexopyranosyl phosphate, Mg^+2 and NTP were incubated at about 37° C. for about 30 min and the extent of product formation determined by HPLC. The results of these assays are illustrated in FIG. 2. Confirmation of product formation was based upon HPLC co-elution with commercially available standards and/or HPLC isolation and high resolution mass spectroscopy of the product. […]

In the case of O=P(O)(O)O[C@H]1O[C@H](CO)[C@@H](O)[C@H](O)[C@H]1O [compound 2, α-D-glucopyranosyl phosphate], the “activity as Ep substrate with TTP” value [1] is reported as “prefers”, the Km [2] is reported as 300 ± 100 µM and the Vmax [2] is reported as 0.03 ± 0.02 mM/min.
In the case of CC(=O)NC[C@H]1O[C@H](OP(=O)([O-])[O-])[C@H](O)[C@@H](O)[C@@H]1O.[Na+].[Na+] [compound 86, Disodium-(6-acetamido-6-deoxy-α-D-glucopyranosyl) Phosphate], the “product formation with dTTP” value [3] is reported as “less activity”, the “increase of product formation with UTP in comparison to dTTP” value ([3]; FIG. 4) is reported as 8 fold and the “acceptance / conversion by wild-type Ep” value (wild-type Ep) is reported as “not well-accepted”. For the same compound, the “turnover by the mutant pool” value [4] was “turned over” and the “conversion by Trp224His mutant” value (Ep Trp224His mutant) was “responsible for converting”.
In the case of CC(=O)N[C@H]1[C@@H](OP(=O)(O)O)O[C@H](CO)[C@@H](O)[C@@H]1O [compound 108, 2-acetamido-2-deoxy-α-D-glucopyranosyl phosphate, reference compound], the “product formation with dTTP” value [3] is reported as “well-tolerated”, the “acceptance / conversion by wild-type Ep” value (wild-type Ep) is reported as “poor conversion” and the “increase in conversion by Thr102Ala mutant” value (Ep Thr102Ala mutant) is reported as 2 fold.
Compound “Ep: Salmonella enterica LT2 rmlA-encoded α-D-glucopyranosyl phosphate thymidylyltransferase, overexpressed in E. coli and purified” has a specific activity [5] of 110 U mg^−1.
